Values joined by “and” are separate entries in the source; they are usually repeats but may differ in a detail not shown here. Equal values may be shown once.
Legend:
[1] = system: Primary Rat Hippocampal Cells; assay: Neurite outgrowth assay, primary rat hippocampal cells; type: cell-based; settings: MAP-2 immunofluorescence; active if greater than mean DMSO-treated control on the same plate
Procedure: Hippocampal cells are dissected from the brains of embryonic day 18 rat pups and dissociated with trypsin (1 mg/mL) and trituration. Cells are seeded at 30,000 cells/well in 96-well plates filled with 100 μL MEM and 10% FBS. At 7 days in culture, cells are fixed with 4% paraformaldehyde and immuno-fluorescence is performed.
(§1) Cultures are incubated with normal horse serum (1:50; Vector Labs) for about 20 min, rinsed and then incubated with primary antibody, microtubule associated-protein 2 (anti-mouse MAP-2; 1:1000; Chemicon) for about 2 h at about RT. Following primary antibody, cultures are rinsed and incubated with fluorescein anti-mouse IgG (rat absorbed; 1:50; Vector Labs) for about 1 h. After fluorescein incubation, the cultures are rinsed and read in PBS on a fluorescent plate reader (excitation: 485 nm; emission: 530 nm). […] The response to test compound is reported as percent of DMSO-treated control.

[2] = system: Human M17 Neuroblastoma Cells; assay: Neurite outgrowth assay, M17 neuroblastoma cells; type: cell-based; settings: MAP-2 immunofluorescence; active if greater than mean DMSO-treated control on the same plate
Procedure: M17 human neuroblastoma cells are cultured in 1:1 ratio of EMEM and Hams's F12 with 1×NEM and 10% FBS. The culture media contains 1×PSN antibiotic and is exchanged every other day, and the cells are passed in log phase near confluence.
as §1

[3] = system: Dorsal Root Ganglion (DRG); assay: Dorsal Root Ganglion (DRG) culture, neurite outgrowth; type: cell-based, rat; parameters: key: +: Positive results for each experiment; −: Negative results for each experiment; settings: test compound 50-250 nM; neurite outgrowth examined days 1-5; positive if neurites of ≧1 diameter of the DRG; one symbol per experiment
Procedure: DRG are dissected from newborn or 1-day-old CD rats and placed into PBS on ice. After rinsing twice with sterile plating medium, DRG are transferred to empty wells of a 6-well plate coated with polyornithine/laminin (Becton Dickinson Labware) using #7 curved forceps. Three ml/well of plating medium are then added very gently, so as not to disturb the DRG. Plating medium is Leibovitz's L-15 medium (Gibco), plus 0.6% glucose, 33 mM KCl, 10% FCS, 10 mM Hepes and penicillin/streptomycin/glutamine. After overnight incubation at about 37° C. in 5% CO2, this medium is replaced with 3 mL/well of assay medium [Leibovitz's L-15 medium plus 0.6% glucose, 1% FCS, 1% N-2 supplement (Gibco), 10 μM ara-C, 10 mM Hepes, and penicillin/streptomycin/glutamine] containing either vehicle (DMSO, 1/200,000), positive control (24 ng/mL NGF) or test compound (50-250 nM). All media are prepared fresh daily. DRG are microscopically examined for neurite outgrowth on days 1-5.

[4] = system: facial nerve; assay: Rat facial nerve compression model; type: in vivo; settings: p.o. about 20 mg/kg twice a day for 15 days; compared to vehicle and internal control; FIG. 1
Procedure: In this model, compressing the facial nerve causes paralysis of the whisker muscle on that side of the face. The untreated facial nerve on the other side functions as an internal control. […] The whisker movement recovery rate on the paralyzed side compared to the vehicle and internal control is shown in this FIGURE.
Long-Evans rats are anesthetized under ketamine (60 mg/kg)/xylazine (6 mg/kg). The facial nerve is exposed and mechanically compressed with forceps near the stylomastoid foramen unilaterally with the opposite, non-lesioned side serving as an internal control. […] Rats received test compound p.o. at about 20 mg/kg twice a day for 15 days after the surgery. Control rats received vehicle only. Three to eight rats are tested in each group. Restoration of whisker movement after the treatment with compounds of the present invention is recorded at different post-operative time points daily, up to two weeks, and is shown in FIG. 1.

[5] = system: PC12 cells and sensory ganglia; settings: cultures of PC12 cells and sensory ganglia; Lyons et al. 1994; cited from earlier work

## CCC(C)(C)C(=O)C(=O)N1CCC[C@H]1C(=O)NNC(=O)CCc1cc(OC)c(OC)c(OC)c1 [Compound 34]
[1]
  Rat Hippocampal Cell Response: 113% of DMSO-treated control
[2]
  M17 Cell Response: 106% of DMSO-treated control

## CCC(C)(C)C(=O)C(=O)N1CCC[C@H]1c1nc(COc2cccnc2)cs1 [Compound 19]
[1]
  Rat Hippocampal Cell Response: 109% of DMSO-treated control
[2]
  M17 Cell Response: 110% of DMSO-treated control

## O=C(NCc1cccnc1)c1csc([C@@H]2CCCN2C(=O)OCc2ccccc2)n1 [Compound 11]
[3]
  DRG: +

## CCC(C)(C)C(=O)C(=O)N1CCC[C@H]1C(=O)NNC(=O)c1cccnc1 [Compound 59]
[1]
  Rat Hippocampal Cell Response: 116% of DMSO-treated control

## CCC(C)(C)C(=O)C(=O)N1CC[C@H]1C(=O)NNC(=O)[C@@H]1CCN1C(=O)C(=O)C(C)(C)CC [Compound 26]
[1]
  Rat Hippocampal Cell Response: 133% of DMSO-treated control

## CCC(C)(C)C(=O)C(=O)N1CCC[C@H]1c1nc(CCc2cccnc2)no1 [Compound 31]
[1]
  Rat Hippocampal Cell Response: 124% of DMSO-treated control
[3]
  DRG: + and −
[2]
  M17 Cell Response: 111% of DMSO-treated control

## CCC(C)(C)C(=O)C(=O)N1CSCC1c1nnc([C@@H]2CSCN2C(=O)C(=O)C(C)(C)CC)o1 (some centres unmarked) [Compound 58]
[1]
  Rat Hippocampal Cell Response: 142% of DMSO-treated control

## O=C(OCc1cccnc1)c1ncoc1[C@@H]1CCCN1C(=O)OCc1ccccc1 [Compound 4]
[1]
  Rat Hippocampal Cell Response: 111% of DMSO-treated control and 123% of DMSO-treated control
[3]
  DRG: +
[2]
  M17 Cell Response: 134% of DMSO-treated control and 111% of DMSO-treated control

## CCC(C)(C)C(=O)C(=O)N1CCCC1c1nnc([C@@H]2CCCN2C(=O)C(=O)C(C)(C)CC)o1 (some centres unmarked) [Compound 30]
[1]
  Rat Hippocampal Cell Response: 161% of DMSO-treated control and 118% of DMSO-treated control and 130% of DMSO-treated control
[3]
  DRG: +, +, +, +, +
[2]
  M17 Cell Response: 112% of DMSO-treated control and 103% of DMSO-treated control
[4]
  Restoration of whisker movement on the paralyzed side: restored more rapidly

## COc1cc(C(=O)C(=O)N2CCCC2c2nnc([C@@H]3CCCN3C(=O)C(=O)c3cc(OC)c(OC)c(OC)c3)o2)cc(OC)c1OC (some centres unmarked) [Compound 56]
[1]
  Rat Hippocampal Cell Response: 118% of DMSO-treated control and 116% of DMSO-treated control

## CCC(C)(C)C(=O)C(=O)N1CCCC[C@H]1C(=O)NNC(=O)CCc1cc(OC)c(OC)c(OC)c1 [Compound 37]
[1]
  Rat Hippocampal Cell Response: 130% of DMSO-treated control
[2]
  M17 Cell Response: 111% of DMSO-treated control

## CCC(C)(C)C(=O)C(=O)N1CCCC[C@H]1C(=O)NNC(=O)[C@@H]1CCCCN1C(=O)C(=O)C(C)(C)CC [Compound 25]
[1]
  Rat Hippocampal Cell Response: 108% of DMSO-treated control
[2]
  M17 Cell Response: 111% of DMSO-treated control

## CCC(C)(C)C(=O)C(=O)N1CCC[C@H]1c1nc(C(=O)NCc2cccnc2)cs1 [Compound 14]
[1]
  Rat Hippocampal Cell Response: 116% of DMSO-treated control
[2]
  M17 Cell Response: 112% of DMSO-treated control and 108% of DMSO-treated control

## CCC(C)(C)C(=O)C(=O)N1CCC[C@H]1C(=O)NNC(=O)[C@@H]1CCCN1C(=O)OCc1ccccc1 [Compound 50]
[1]
  Rat Hippocampal Cell Response: 110% of DMSO-treated control

## CCC(C)(C)C(=O)C(=O)N1CCCC[C@H]1c1nnc(CCc2cccnc2)o1 [Compound 38]
[1]
  Rat Hippocampal Cell Response: 129% of DMSO-treated control
[2]
  M17 Cell Response: 105% of DMSO-treated control

## CCC(C)(C)C(=O)C(=O)N1CCCCC1c1nnc([C@@H]2CCCCN2C(=O)C(=O)C(C)(C)CC)o1 (some centres unmarked) [Compound 44]
[2]
  M17 Cell Response: 118% of DMSO-treated control

## COC(=O)C(=O)N1CCCC1c1nnc([C@@H]2CCCN2C(=O)C(=O)OC)o1 (some centres unmarked) [Compound 51]
[1]
  Rat Hippocampal Cell Response: 107% of DMSO-treated control

## O=C(NCc1cccnc1)c1ncoc1[C@@H]1CCCN1S(=O)(=O)Cc1ccccc1 [Compound 3]
[3]
  DRG: −

## O=C(C(=O)N1CCCC1c1nnc([C@@H]2CCCN2C(=O)C(=O)c2cccs2)o1)c1cccs1 (some centres unmarked) [Compound 48]
[1]
  Rat Hippocampal Cell Response: 113% of DMSO-treated control

## O=C(NCc1cccnc1)c1ncoc1[C@@H]1CCCN1C(=O)OCc1ccccc1 [Compound 1]
[3]
  DRG: −
[2]
  M17 Cell Response: 103% of DMSO-treated control

## O=C(NCc1cccnc1)c1csc([C@@H]2CCCN2S(=O)(=O)Cc2ccccc2)n1 [Compound 13]
[3]
  DRG: −
[2]
  M17 Cell Response: 102% of DMSO-treated control

## CCC(C)(C)C(=O)C(=O)N1CCC1c1nnc([C@@H]2CCN2C(=O)C(=O)C(C)(C)CC)o1 (some centres unmarked) [Compound 52]
[1]
  Rat Hippocampal Cell Response: 110% of DMSO-treated control

## CCC(C)(C)C(=O)C(=O)N1CCC[C@H]1C(=O)NNC(=O)[C@@H]1CCCN1C(=O)C(=O)C(C)(C)CC [Compound 24]
[1]
  Rat Hippocampal Cell Response: 119% of DMSO-treated control and 104% of DMSO-treated control and 108% of DMSO-treated control
[3]
  DRG: + and −
[2]
  M17 Cell Response: 123% of DMSO-treated control

## C=CC[C@@H]1/C=C(\C)C[C@H](C)C[C@H](OC)[C@H]2O[C@@](O)(C(=O)C(=O)N3CCCC[C@H]3C(=O)O[C@H](/C(C)=C/[C@@H]3CC[C@@H](O)[C@H](OC)C3)[C@H](C)[C@@H](O)CC1=O)[C@H](C)C[C@@H]2OC [FK506]
[5]
  neurotrophic activity: shows neurotrophic activity

## CCC(C)(C)C(=O)C(=O)N1CCC[C@H]1C(=O)NNC(=O)CCc1cccnc1 [Compound 32]
[2]
  M17 Cell Response: 103% of DMSO-treated control

## CCC(C)(C)C(=O)C(=O)N1CCC[C@H]1c1nnc(CCc2cc(OC)c(OC)c(OC)c2)o1 [Compound 35]
[1]
  Rat Hippocampal Cell Response: 126% of DMSO-treated control
[2]
  M17 Cell Response: 106% of DMSO-treated control

## O=S(=O)(Cc1ccccc1)N1CCCC1c1nnc([C@@H]2CCCN2S(=O)(=O)Cc2ccccc2)o1 (some centres unmarked) [Compound 54]
[1]
  Rat Hippocampal Cell Response: 113% of DMSO-treated control

## CCC(C)(C)C(=O)C(=O)N1CCC[C@@H]1c1nnc([C@H]2CCCN2C(=O)C(=O)C(C)(C)CC)o1 [Compound 64]
[1]
  Rat Hippocampal Cell Response: 122% of DMSO-treated control

## CCC(C)(C)C(=O)C(=O)N1CCC[C@H]1c1nnc(CCc2cccnc2)o1 [Compound 33]
[1]
  Rat Hippocampal Cell Response: 112% of DMSO-treated control
[2]
  M17 Cell Response: 104% of DMSO-treated control

## CCC(C)(C)C(=O)C(=O)N1CCC[C@H]1c1nnc(C2CCCN2)o1 (some centres unmarked) [Compound 55]
[1]
  Rat Hippocampal Cell Response: 116% of DMSO-treated control

## CC(C)(C)C(=O)C(=O)N1CCCC1c1nnc([C@@H]2CCCN2C(=O)C(=O)C(C)(C)C)o1 (some centres unmarked) [Compound 62]
[1]
  Rat Hippocampal Cell Response: 120% of DMSO-treated control

## CCC(C)(C)C(=O)C(=O)N1CCCC1C(=O)NNC(=O)[C@H]1CCCN1C(=O)C(=O)C(C)(C)CC (some centres unmarked) [Compound 63]
[1]
  Rat Hippocampal Cell Response: 110% of DMSO-treated control

## CCC(C)(C)C(=O)C(=O)N1CCC[C@H]1c1nnc(-c2cccnc2)o1 [Compound 60]
[1]
  Rat Hippocampal Cell Response: 114% of DMSO-treated control

## CCC(C)(C)C(=O)C(=O)N1CCCC[C@H]1c1nnc(CCc2cc(OC)c(OC)c(OC)c2)o1 [Compound 39]
[2]
  M17 Cell Response: 112% of DMSO-treated control

Reference: patent US20050153951A1, “Neurotrophic pyrrolidines and piperidines, and related compositions and methods” (priority 1999, published 2005)
